Test results reported in USRE50528E1, “Compounds and compositions for modulating EGFR mutant kinase activities” (Yuhan Corporation, priority 2014, dated 2025).
pIC50: −log10 of the molar value. Like-named read-outs stand apart in the source and are kept apart here.

Tests used:
EGFR mutant T790M = biological target: T1, EGFR mutant T790M (Homo sapiens, UniProt P00533, T790M); assay: Kinase inhibition assay, EGFR mutant T790M; conditions: biochemical potency;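 note: truncated human EGFR mutant enzyme preincubated two hours with compound, then ATP plus ULight-PolyGT peptide for one hour, Europium-labeled antibody LANCE detection, IC50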
T1 construct: truncated human JAK3, EGFR mutants such as del E746-A750; purchased Carna Biosciences

SYK = biological target: T2, SYK (Homo sapiens, UniProt P43405); assay: Kinase inhibition assay, SYK; assay type: biochemical; conditions: biochemical potency;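 note: purified full-length human SYK pre-incubated 30 min with compound, then ULight-TK peptide phosphorylation for 1 h, detected with Europium-labeled antibody in Lance buffer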
T2 construct: Purified human, full-length SYK, KDR; purchased Carna Biosciences

[1] = biological target: T3, EGFR mutant Del19 (E746-A750) (Homo sapiens, UniProt P00533, DEL746-750); assay: Kinase inhibition assay, EGFR del E746-A750; assay type: biochemical; conditions: read-out: EGFR mutants Del19 (E746-A750);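 note: truncated human EGFR mutant kinase, two-hour preincubation with compound, then one-hour reaction with ATP and ULight-PolyGT peptide, LANCE Europium-antibody phosphorylation readout, IC50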
T3 construct: truncated human JAK3, EGFR mutants such as del E746-A750; purchased Carna Biosciences

EGFR mutant L858R/T790M = biological target: T4, EGFR mutant L858R/T790M (Homo sapiens, UniProt P00533, L858R/T790M); assay: Kinase inhibition assay, EGFR L858R/T790M; assay type: biochemical; conditions: read-out: EGFR mutants L858R/T790M;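 note: truncated human enzyme preincubated two hours with compound, then one hour with one millimolar ATP and ULight-PolyGT peptide, Europium-labeled antibody detection, IC50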
T4 construct: truncated human JAK3, EGFR mutants such as del E746-A750; purchased Carna Biosciences

EGFR mutant L858R = biological target: T5, EGFR mutant L858R (Homo sapiens, UniProt P00533, L858R); assay: Kinase inhibition assay, EGFR L858R; assay type: biochemical; conditions: read-out: EGFR mutants L858R;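 note: truncated human EGFR L858R kinase with compound preincubation, ULight-PolyGT peptide phosphorylation read by Europium-antibody Lance detection, IC50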
T5 construct: truncated human JAK3, EGFR mutants such as del E746-A750; purchased Carna Biosciences

Row | Compound | pIC50 (EGFR mutant T790M) | pIC50 (SYK) | pIC50 [1] | pIC50 (EGFR mutant L858R/T790M) | pIC50 (EGFR mutant L858R) | pIC50 (EGFR mutant L858R/T790M; biochemical potency, 1 mM ATP) | pIC50 (EGFR mutant L858R; biochemical potency, 1 mM ATP)
1 | C=CC(=O)Nc1cc(Nc2nccc(-n3cc(CN4CC(O)C4)c(C)n3)n2)c(OC)cc1-c1cnn(C)c1 [Compound 58, N-(5-(4-(4-((3-hydroxyazetidin-1-yl)methyl)-3-methyl-1H-pyrazol-1-yl)pyrimidin-2-ylamino)-4-methoxy-2-(1-methyl-1H-pyrazol-4-yl)phenyl)acrylamide] | 6.70 to 7.70 | 6.00 to 6.70 | – | – | – | – | –
2 | C=CC(=O)Nc1cc(Nc2ncc(C)c(-n3cc(CN4CCC4)cn3)n2)c(OC(C)C)cc1N1CCOCC1 [Compound 63, N-(5-(4-(4-(azetidin-1-ylmethyl)-1H-pyrazol-1-yl)-5-methylpyrimidin-2-ylamino)-4-isopropoxy-2-morpholinophenyl)acrylamide] | 6.70 to 7.70 | < 6.00 | 6.70 to 7.70 | 6.70 to 7.70 | 6.00 to 6.70 | – | –
3 | C=CC(=O)Nc1cc(Nc2nccc(-n3cc(CO)c(C)n3)n2)c(OC)cc1N1CCOCC1 [Compound 66, N-(5-(4-(4-(hydroxymethyl)-3-methyl-1H-pyrazol-1-yl)pyrimidin-2-ylamino)-4-methoxy-2-morpholinophenyl)acrylamide] | 6.70 to 7.70 | < 6.00 | > 7.70 | > 7.70 | 6.70 to 7.70 | – | –
4 | C=CC(=O)Nc1cc(Nc2nccc(-n3cc(CN4CC(F)C4)c(C)n3)n2)c(OC)cc1N1CCOCC1 [Compound 72, N-(5-(4-(4-((3-fluoroazetidin-1-yl)methyl)-3-methyl-1H-pyrazol-1-yl)pyrimidin-2-ylamino)-4-methoxy-2-morpholinophenyl)acrylamide] | 6.70 to 7.70 | – | – | – | – | – | –
5 | C=CC(=O)Nc1cc(Nc2nccc(-n3cc(CN(C)C)c(-c4ccccc4)n3)n2)c(OC)cc1N1CCCC1 [Compound 98, N-(5-(4-(4-((dimethylamino)methyl)-3-phenyl-1H-pyrazol-1-yl)pyrimidin-2-ylamino)-4-methoxy-2-(pyrrolidin-1-yl)phenyl)acrylamide] | 6.70 to 7.70 | – | > 7.70 | 6.70 to 7.70 | 6.70 to 7.70 | – | –
6 | C=CC(=O)Nc1cc(Nc2nccc(-n3cc(CN4CCC4)c(-c4ccccc4)n3)n2)c(OC)cc1N1CCCC1 [Compound 99, N-(5-(4-(4-(azetidin-1-ylmethyl)-3-phenyl-1H-pyrazol-1-yl)pyrimidin-2-ylamino)-4-methoxy-2-(pyrrolidin-1-yl)phenyl)acrylamide] | 6.70 to 7.70 | – | > 7.70 | 6.70 to 7.70 | 6.70 to 7.70 | – | –
7 | C=CC(=O)Nc1cc(Nc2nccc(-n3cc(CN4CCC4)c(C(C)(C)C)n3)n2)c(OC)cc1N1CCCC1 [Compound 105, N-(5-(4-(4-(azetidin-1-ylmethyl)-3-tert-butyl-1H-pyrazol-1-yl)pyrimidin-2-ylamino)-4-methoxy-2-(pyrrolidin-1-yl)phenyl)acrylamide] | 6.70 to 7.70 | < 6.00 | – | – | – | – | –
8 | C=CC(=O)Nc1cc(Nc2nccc(-n3cc(CN4CCC4)c(C4CC4)n3)n2)c(OC)cc1N1CCCC1 [Compound 111, N-(5-(4-(4-(azetidin-1-ylmethyl)-3-cyclopropyl-1H-pyrazol-1-yl)pyrimidin-2-ylamino)-4-methoxy-2-(pyrrolidin-1-yl)phenyl)acrylamide] | 6.70 to 7.70 | < 6.00 | – | – | – | – | –
9 | N-(2-((2-(dimethylamino)ethyl)(methyl)amino)-5-(4-(3-((dimethylamino)methyl)-4-(trifluoromethyl)-1H-pyrrol-1-yl)-5-fluoropyrimidin-2-ylamino)-4-methoxyphenyl)acrylamide [Compound 144] | > 7.70 | – | – | – | – | – | –
10 | N-(5-(4-(4-(azetidin-1-ylmethyl)-3-methyl-1H-pyrazol-1-yl)pyrimidin-2-ylamino)-4-methoxy-2-(1H-pyrazol-1-yl)phenyl)acrylamide [Compound 53] | 6.70 to 7.70 | < 6.00 | – | – | – | 6.70 to 7.70 | 6.70 to 7.70

Now from value to compound, other results behind:

Row | pIC50 (EGFR mutant T790M) | pIC50 (SYK) | pIC50 [1] | pIC50 (EGFR mutant L858R/T790M) | pIC50 (EGFR mutant L858R) | Compound | pIC50 (EGFR mutant L858R/T790M; biochemical potency, 1 mM ATP) | pIC50 (EGFR mutant L858R; biochemical potency, 1 mM ATP)
11 | 6.70 to 7.70 | < 6.00 | – | – | – | C=CC(=O)Nc1ccc(OC)c(Nc2nccc(-n3ccc(C)n3)n2)c1 [Compound 9, N-(4-methoxy-3-(4-(3-methyl-1H-pyrazol-1-yl)pyrimidin-2-ylamino)phenyl)acrylamide] | – | –
12 | > 7.70 | 6.70 to 7.70 | – | – | – | C=CC(=O)Nc1ccc(OC)c(Nc2ncc(C)c(-n3cc(CN4CC(O)C4)cn3)n2)c1 [Compound 11, N-(3-(4-(4-((3-hydroxyazetidin-1-yl)methyl)-1H-pyrazol-1-yl)-5-methylpyrimidin-2-ylamino)-4-methoxyphenyl)acrylamide] | – | –
13 | 6.70 to 7.70 | < 6.00 | – | – | – | C=CC(=O)Nc1cc(Nc2nccc(-n3cc(CN4CCC4)c(C)n3)n2)c(OC)cc1N(C)CCN(C)C [Compound 16, N-(5-(4-(4-(azetidin-1-ylmethyl)-3-methyl-1H-pyrazol-1-yl)pyrimidin-2-ylamino)-2-((2-(dimethylamino)ethyl)(methyl)amino)-4-methoxyphenyl)acrylamide] | – | –
14 | > 7.70 | < 6.00 | – | – | – | C=CC(=O)Nc1cc(Nc2nccc(-n3cc(CN4CCC4)c(C)n3)n2)c(OC)cc1N1CCCCC1 [Compound 18, N-(5-(4-(4-(azetidin-1-ylmethyl)-3-methyl-1H-pyrazol-1-yl)pyrimidin-2-ylamino)-4-methoxy-2-(piperidin-1-yl)phenyl)acrylamide] | – | –
15 | > 7.70 | 6.00 to 6.70 | – | – | – | C=CC(=O)Nc1cc(Nc2ncc(C)c(-n3cc(CN4C[C@@H](O)[C@@H](O)C4)cn3)n2)c(OC)cc1N1CCOCC1 [Compound 20, N-(5-(4-(4-(((3R,4S)-3,4-dihydroxypyrrolidin-1-yl)methyl)-1H-pyrazol-1-yl)-5-methylpyrimidin-2-ylamino)-4-methoxy-2-morpholinophenyl)acrylamide] | – | –
16 | > 7.70 | 6.00 to 6.70 | – | – | – | C=CC(=O)Nc1cc(Nc2ncc(C)c(-n3cc(CN4CC(O)C4)c(C)n3)n2)c(OC)cc1N1CCOCC1 [Compound 24, N-(5-(4-(4-((3-hydroxyazetidin-1-yl)methyl)-3-methyl-1H-pyrazol-1-yl)-5-methylpyrimidin-2-ylamino)-4-methoxy-2-morpholinophenyl)acrylamide] | – | –
17 | > 7.70 | < 6.00 | – | – | – | C=CC(=O)Nc1cc(Nc2ncc(C)c(-n3cc(CN4CC[C@@H](O)C4)c(C)n3)n2)c(OC)cc1N1CCOCC1 [Compound 27, (R)—N-(5-(4-(4-((3-hydroxypyrrolidin-1-yl)methyl)-3-methyl-1H-pyrazol-1-yl)-5-methylpyrimidin-2-ylamino)-4-methoxy-2-morpholinophenyl)acrylamide] | – | –
18 | > 7.70 | < 6.00 | 6.70 to 7.70 | 6.70 to 7.70 | 6.70 to 7.70 | C=CC(=O)Nc1cc(Nc2ncc(F)c(-n3cc(CN4C[C@H](O)[C@H](OC)C4)c(C)n3)n2)c(OC)cc1N1CCOCC1 [Compound 61, N-(5-(5-fluoro-4-(4-(((3S,4R)-3-hydroxy-4-methoxypyrrolidin-1-yl)methyl)-3-methyl-1H-pyrazol-1-yl)pyrimidin-2-ylamino)-4-methoxy-2-morpholinophenyl)acrylamide] | – | –
19 | > 7.70 | < 6.00 | > 7.70 | > 7.70 | > 7.70 | C=CC(=O)Nc1cc(Nc2nccc(-n3cc(CN4CCC4)c(C(C)(C)C)n3)n2)c(OC)cc1N(C)CCOC [Compound 101, N-(5-(4-(4-(azetidin-1-ylmethyl)-3-tert-butyl-1H-pyrazol-1-yl)pyrimidin-2-ylamino)-4-methoxy-2-((2-methoxyethyl)(methyl)amino)phenyl)acrylamide] | – | –
20 | > 7.70 | – | > 7.70 | > 7.70 | > 7.70 | C=CC(=O)Nc1cc(Nc2nccc(-n3cc(CN4CCC4)c(C(C)(C)C)n3)n2)c(OC)cc1N(C)C1COC1 [Compound 103, N-(5-(4-(4-(azetidin-1-ylmethyl)-3-tert-butyl-1H-pyrazol-1-yl)pyrimidin-2-ylamino)-4-methoxy-2-(methyl(oxetan-3-yl)amino)phenyl)acrylamide] | – | –
21 | > 7.70 | < 6.00 | – | – | – | C=CC(=O)Nc1cc(Nc2nccc(-n3cc(CN(C)C)c(C(C)(C)C)n3)n2)c(OC)cc1N1CCCC1 [Compound 104, N-(5-(4-(3-tert-butyl-4-((dimethylamino)methyl)-1H-pyrazol-1-yl)pyrimidin-2-ylamino)-4-methoxy-2-(pyrrolidin-1-yl)phenyl)acrylamide] | – | –
22 | > 7.70 | < 6.00 | – | – | – | C=CC(=O)Nc1cc(Nc2nccc(-n3cc(CN(C)C)c(C(C)C)n3)n2)c(OC)cc1N1CCCC1 [Compound 116, N-(5-(4-(4-((dimethylamino)methyl)-3-isopropyl-1H-pyrazol-1-yl)pyrimidin-2-ylamino)-4-methoxy-2-(pyrrolidin-1-yl)phenyl)acrylamide] | – | –
23 | > 7.70 | < 6.00 | – | – | – | C=CC(=O)Nc1cc(Nc2nccc(-n3cc(CN4CCC4)c(C(C)C)n3)n2)c(OC)cc1N1CCCC1 [Compound 117, N-(5-(4-(4-(azetidin-1-ylmethyl)-3-isopropyl-1H-pyrazol-1-yl)pyrimidin-2-ylamino)-4-methoxy-2-(pyrrolidin-1-yl)phenyl)acrylamide] | – | –
24 | > 7.70 | 6.00 to 6.70 | – | – | – | C=CC(=O)Nc1cc(Nc2ncc(F)c(-n3cc(C)c(CN(C)C)c3)n2)c(OC)cc1N(C)C [Compound 143, N-(2-(dimethylamino)-5-(4-(3-((dimethylamino)methyl)-4-methyl-1H-pyrrol-1-yl)-5-fluoropyrimidin-2-ylamino)-4-methoxyphenyl)acrylamide] | – | –
